The text below walks through data of patent publication US8362004B2, “Piperazine analogs as broad-spectrum influenza antivirals” (priority 2010, dated 2013).

Like-named read-outs stand apart in the source and are kept apart here. A value given as a limit tells only on which side of the number the result lay.

The subject of one test is influenza A/WSN/33. Nature of the test: Antiviral assay in MDCK cells, viral neuraminidase (MUNANA) readout, A/H1N1/WSN. The class given is cell-based. The settings on record: read-out: A/H1N1/WSN Activity.
Test [1] has as its system Influenza A/Solomon Islands/3/06. Nature of the test: Antiviral assay in MDCK cells, viral neuraminidase (MUNANA) readout, A/H1N1/Solomon Islands. The class given is cell-based. The settings on record: read-out: A/H1N1/Solomon Islands Activity.
In test [2] the test system is influenza A/Brisbane/10/2007. Nature of the test: Antiviral assay in MDCK cells, viral neuraminidase (MUNANA) readout, A/H3N2/Brisbane. Type of test: cell-based. The following applies: read-out: A/H3N2/Brisbane Activity.
For the next test, the system named is A/H5N1/Duck_MN. Nature of the test: microbe, parasite or virus in culture. The following applies: read-out: A/H5N1/Duck_MN. The class given is cell-based, influenza A.
A further test has as its system A/H5N1/Gull_PA. Nature of the test: microbe, parasite or virus in culture. Type of test: cell-based, influenza A. The following applies: read-out: A/H5N1/Gull_PA.
For a further test, the system named is A/H5N1/Duck_PA. Nature of the test: microbe, parasite or virus in culture. The class given is cell-based, influenza A. The settings on record: read-out: A/H5N1/Duck_PA.
Setting [3] is: Influenza A virus, H1N1, MDCK, 48 h.
Setting [4] is: Influenza A virus, H3N2, MDCK, 48 h.
The mark [5] stands for this setting: MDCK cells, MOI 0.001, 48 hrs post infection, viral NA activity.

`COc1ccc(C(=O)Nc2cc(N3CCN(C(=O)c4c(-c5ccccc5OC)noc4C)CC3)c(Cl)cc2[N+](=O)[O-])cc1` [Example 1, N-(4-chloro-5-(4-(3-(2-methoxyphenyl)-5-methylisoxazole-4-carbonyl)piperazin-1-yl)-2-nitrophenyl)-4-methoxybenzamide]: the EC50 with influenza A/WSN/33 (Influenza A virus, MDCK, 48 h) was less than 100 nM; in test [1] (setting [3]), less than 100 nM; in test [2] (setting [4]), less than 1000 nM.

As to `COc1ccccc1-c1noc(C)c1C(=O)N1CCN(c2cc(NC(=O)c3ccco3)c([N+](=O)[O-])cc2Cl)CC1` [Example 8], the values for the EC50 in the test on A/H5N1/Duck_MN, in the test with A/H5N1/Gull_PA and in the test on A/H5N1/Duck_PA were less than 1000 nM, less than 100 nM and less than 100 nM, respectively.

Turning to `COc1ccccc1-c1noc(C)c1C(=O)N1CCN(c2cc(NC(=O)C3CCC3)c([N+](=O)[O-])cc2Cl)CC1` [Example 9], the EC50 with influenza A/WSN/33 (setting [5]) is less than 100 nM; in test [1] (setting [5]), less than 1000 nM; in test [2] (setting [5]), less than 10000 nM.

`COc1ccccc1-c1noc(C)c1C(=O)N1CCN(c2cc(NC(=O)c3ccc(SC)cc3)c([N+](=O)[O-])cc2Cl)CC1` [Example 11]: the results for the EC50 in the test on A/H5N1/Duck_MN, in the test with A/H5N1/Gull_PA and in the test with A/H5N1/Duck_PA were less than 1000 nM, less than 100 nM and less than 100 nM, respectively.

With `COc1ccccc1-c1noc(C)c1C(=O)N1CCN(c2cc(NC(=O)c3ccc(OC(F)F)cc3)c([N+](=O)[O-])cc2Cl)CC1` [Example 13], the results for the EC50 with A/H5N1/Duck_MN, with A/H5N1/Gull_PA and in the test on A/H5N1/Duck_PA were less than 1000 nM, less than 100 nM and less than 1000 nM, respectively.

Consider `COc1ccccc1-c1noc(C)c1C(=O)N1CCN(c2cc(NC(=O)c3ccc(C)cc3)c([N+](=O)[O-])cc2Cl)CC1` [Example 24], for which the EC50 in the test on influenza A/WSN/33 (setting [5]) was less than 100 nM; in test [1] (setting [5]), less than 100 nM; in test [2] (setting [5]) it was less than 10000 nM.

In the case of `COc1ccccc1-c1noc(C)c1C(=O)N1CCN(c2cc(NC(=O)c3ccc(N(C)S(C)(=O)=O)cc3)c([N+](=O)[O-])cc2Cl)CC1` [Example 35], the EC50 in the test with influenza A/WSN/33 (setting [5]) is less than 100 nM; in test [1] (setting [5]) it was less than 100 nM; in test [2] (setting [5]) it was less than 1000 nM.

Take `COc1ccccc1-c1noc(C)c1C(=O)N1CCN(c2cc(NC(=O)c3ccc(-n4cncn4)cc3)c([N+](=O)[O-])cc2Cl)CC1` [Example 37]: the EC50 is less than 100 nM in the test on influenza A/WSN/33 (setting [5]), less than 100 nM in test [1] (setting [5]) and less than 1000 nM in test [2] (setting [5]).

Turning to `COc1ccccc1-c1noc(C)c1C(=O)N1CCN(c2cc(NC(=O)c3ccc(-c4nnc(C)o4)cc3)c([N+](=O)[O-])cc2Cl)CC1` [Example 38], the EC50 in the test with influenza A/WSN/33 (setting [5]) is less than 1000 nM; in test [1] (setting [5]) it was less than 1000 nM; in test [2] (setting [5]) it was less than 100 nM.

Turning to `COc1ccc(C(=O)Nc2nc(N3CCN(C(=O)c4c(-c5ccccc5OC)noc4C)CC3)c(Cl)cc2[N+](=O)[O-])cc1` [Example 43], the EC50 in the test with influenza A/WSN/33 (setting [5]) was less than 1000 nM; in test [1] (setting [5]), less than 1000 nM; in test [2] (setting [5]), less than 100 nM.

For `COc1ccccc1-c1noc(C)c1C(=O)N1CCN(c2cc(NC(=O)c3ccc(N4CCCC4=O)cc3)c([N+](=O)[O-])cc2Cl)CC1` [Example 47, N-(4-chloro-5-(4-(3-(2-methoxyphenyl)-5-methylisoxazole-4-carbonyl)piperazin-1-yl)-2-nitrophenyl)-4-(2-oxopyrrolidin-1-yl)benzamide], the EC50 is less than 100 nM with influenza A/WSN/33 (Influenza A virus, MDCK, 48 h); less than 100 nM in test [1] (setting [3]); less than 1000 nM in test [2] (setting [4]).

For `COc1ccccc1-c1noc(C)c1C(=O)N1CCN(c2nc(NC(=O)c3ccc(N(C)C)cc3)c(Cl)cc2Cl)CC1` [Example 52], the results for the EC50 (with influenza A/WSN/33 (setting [5]); in test [1] (setting [5]); in test [2] (setting [5])) were less than 1000 nM, less than 1000 nM and less than 10000 nM, respectively.

For the molecule `COc1ccccc1-c1noc(C)c1C(=O)N1CCN(c2cc(NC(=O)c3ccc(N(C)C)cc3)c(C)cc2Br)CC1` [Example 54], the EC50 with influenza A/WSN/33 (setting [5]) is less than 1000 nM; in test [1] (setting [5]), less than 1000 nM; in test [2] (setting [5]) it was less than 10000 nM.

As for `COc1ccccc1-c1noc(C)c1C(=O)N1CCN(c2cc(NC(=O)c3ccc(N(C)C)cc3)c(Cl)cc2Cl)CC1` [Example 55], the EC50 was less than 100 nM with influenza A/WSN/33 (setting [5]), less than 100 nM in test [1] (setting [5]) and less than 1000 nM in test [2] (setting [5]).

For `COc1ccccc1-c1noc(C)c1C(=O)N1CCN(c2cc(NC(=O)c3nccs3)c(Cl)cc2Cl)CC1` [Example 56], the EC50 in the test on influenza A/WSN/33 (setting [5]) is less than 1000 nM; in test [1] (setting [5]), less than 10000 nM; in test [2] (setting [5]), less than 10000 nM.

Turning to `COc1ccccc1-c1noc(C)c1C(=O)N1CCN(c2cc(NC(=O)c3ccc(N(C)C)cc3)c(C#N)cc2Cl)CC1` [Example 65], the EC50 in the test with influenza A/WSN/33 (setting [5]) is less than 100 nM; in test [1] (setting [5]), less than 1000 nM; in test [2] (setting [5]), less than 10000 nM.

`COc1ccc(C(=O)Nc2cc(N3CCN(C(=O)c4c(-c5ccccc5OC)noc4C)CC3)c(C#N)cc2Cl)cc1` [Example 66]: the EC50 (in the test with influenza A/WSN/33 (setting [5]); in test [1] (setting [5]); in test [2] (setting [5])) was less than 10000 nM in each case.

As to `COc1ccccc1-c1noc(C)c1C(=O)N1CCN(c2cc(NC(=O)c3ccc(N(C)C)cc3)c([N+](=O)[O-])cc2C#N)CC1` [Example 68], the EC50 in the test with influenza A/WSN/33 (setting [5]) was less than 1000 nM; in test [1] (setting [5]) it was less than 100 nM; in test [2] (setting [5]) it was less than 100 nM.

Consider `COc1ccccc1-c1noc(CF)c1C(=O)N1CCN(c2cc(NC(=O)c3ccc(N(C)C)cc3)c(Cl)cc2Cl)CC1` [Example 69, N-(2,4-dichloro-5-(4-(5-(fluoromethyl)-3-(2-methoxyphenyl)isoxazole-4-carbonyl)piperazin-1-yl)phenyl)-4-(dimethylamino)benzamide], for which the EC50 in the test with influenza A/WSN/33 (Influenza A virus, MDCK, 48 h) is less than 1000 nM; in test [1] (setting [3]), less than 1000 nM; in test [2] (setting [4]) it was less than 10000 nM.

Turning to `COc1ccccc1-c1n[nH]c(C)c1C(=O)N1CCN(c2cc(NC(=O)c3ccc(N(C)C)cc3)c([N+](=O)[O-])cc2Cl)CC1` [Example 70, N-(4-chloro-5-(4-(3-(2-methoxyphenyl)-5-methyl-1H-pyrazole-4-carbonyl)piperazin-1-yl)-2-nitrophenyl)-4-(dimethylamino)benzamide], the EC50 in the test on influenza A/WSN/33 (Influenza A virus, MDCK, 48 h) is less than 100 nM; in test [1] (setting [3]) it was less than 1000 nM; in test [2] (setting [4]) it was less than 10000 nM.

For the molecule `Cc1c[nH]c(-c2ccccc2Cl)c1C(=O)N1CCN(c2cc(NC(=O)c3ccc(N(C)C)cc3)c([N+](=O)[O-])cc2Cl)CC1` [Example 72], the EC50 in the test on influenza A/WSN/33 (setting [5]) was less than 100 nM; in test [1] (setting [5]) it was less than 100 nM; in test [2] (setting [5]), less than 1000 nM.

With `COc1ccccc1-n1ncc(C)c1C(=O)N1CCN(c2cc(NC(=O)c3ccc(N(C)C)cc3)c([N+](=O)[O-])cc2Cl)CC1` [Example 73], the EC50 is less than 1000 nM in the test with influenza A/WSN/33 (setting [5]), less than 100 nM in test [1] (setting [5]) and less than 1000 nM in test [2] (setting [5]).

As for `COc1ccccc1-c1ncn(C)c1C(=O)N1CCN(c2cc(NC(=O)c3ccc(N(C)C)cc3)c([N+](=O)[O-])cc2Cl)CC1` [Example 81], the EC50 with influenza A/WSN/33 (setting [5]) was less than 100 nM; in test [1] (setting [5]), less than 100 nM; in test [2] (setting [5]) it was less than 10000 nM.

As to `COc1ccccc1-c1nnn(C)c1C(=O)N1CCN(c2cc(NC(=O)c3ccc(N4CCCC4=O)cc3)c([N+](=O)[O-])cc2Cl)CC1` [Example 84, N-(4-chloro-5-(4-(4-(2-methoxyphenyl)-1-methyl-1H-1,2,3-triazole-5-carbonyl)piperazin-1-yl)-2-nitrophenyl)-4-(2-oxopyrrolidin-1-yl)benzamide], the EC50 in the test on influenza A/WSN/33 (Influenza A virus, MDCK, 48 h) was less than 100 nM; in test [1] (setting [3]) it was less than 100 nM; in test [2] (setting [4]) it was less than 100 nM.

As for `COc1ccccc1-c1nnn(C)c1C(=O)N1CCN(c2cc(NC(=O)c3ccc(N4CCCS4(=O)=O)cc3)c([N+](=O)[O-])cc2Cl)CC1` [Example 92], the EC50 in the test with influenza A/WSN/33 (setting [5]) is less than 100 nM; in test [1] (setting [5]) it was less than 100 nM; in test [2] (setting [5]) it was less than 1000 nM.

In the case of `COc1ccc(C(=O)Nc2cc(N3CCN(C(=O)c4c(-c5ccccc5OC)ncn4C)CC3)c(Cl)cc2[N+](=O)[O-])cc1` [Example 102], the EC50 is less than 100 nM in the test with influenza A/WSN/33 (setting [5]), less than 1000 nM in test [1] (setting [5]) and less than 10000 nM in test [2] (setting [5]).

As to `COc1ccccc1-c1nnn(C)c1C(=O)N1CCN(c2cc(NC(=O)c3ccc(N4CCCS4(=O)=O)cc3)c(Br)cc2Cl)CC1` [Example 120, N-(4-chloro-5-(4-(4-(2-methoxyphenyl)-1-methyl-1H-1,2,3-triazole-5-carbonyl)piperazin-1-yl)-2-bromophenyl)-4-(1,1-dioxidoisothiazolidin-2-yl)benzamide], the EC50 in the test with influenza A/WSN/33 (Influenza A virus, MDCK, 48 h) was less than 1000 nM; in test [1] (setting [3]), less than 1000 nM; in test [2] (setting [4]), less than 10000 nM.

On to `COc1ccccc1-c1nnn(C)c1C(=O)N1CCN(c2cc(NC(=O)c3ccc(N4CCCC4=O)cc3)c([N+](=O)[O-])cc2C#N)CC1` [Example 122, N-(4-cyano-5-(4-(4-(2-methoxyphenyl)-1-methyl-1H-1,2,3-triazole-5-carbonyl)piperazin-1-yl)-2-nitrophenyl)-4-(2-oxopyrrolidin-1-yl)benzamide], for which the EC50 in the test on influenza A/WSN/33 (Influenza A virus, MDCK, 48 h) is less than 1000 nM; in test [1] (setting [3]) it was less than 1000 nM; in test [2] (setting [4]), less than 1000 nM.

Consider `COc1ccccc1-c1ncn(C)c1C(=O)N1CCN(c2cc(NC(=O)c3ccc(N(C)C)cc3)c([N+](=O)[O-])cc2C#N)CC1` [Example 124], for which the EC50 (in the test on influenza A/WSN/33 (setting [5]); in test [1] (setting [5]); in test [2] (setting [5])) was less than 100 nM throughout.

In the case of `C=Cc1cc(Cl)c(N2CCN(C(=O)c3c(-c4ccccc4OC)noc3C)CC2)cc1NC(=O)c1ccc(N(C)C)cc1` [Example 125, N-(4-chloro-5-(4-(3-(2-methoxyphenyl)-5-methylisoxazole-4-carbonyl)piperazin-1-yl)-2-vinylphenyl)-4-(dimethylamino)benzamide], the EC50 in the test with influenza A/WSN/33 (Influenza A virus, MDCK, 48 h) was less than 1000 nM; in test [1] (setting [3]), less than 1000 nM; in test [2] (setting [4]), less than 10000 nM.
